Experimental data published in paper PMC7600264, “Quasi-Irreversible Inhibition of CYP2D6 by Berberine” (Pharmaceutics, 2020).
Where two headings read alike, the source gives them in different places.

Assays:
CYP2D6 [1] = biological target: T1, CYP2D6 (Homo sapiens, UniProt P10635); design: method as in PMID 25145883; settings: HLM; previous study; cited from earlier work
CYP1A2 = biological target: T2, CYP1A2 (Homo sapiens, UniProt P05177); test: Direct CYP inhibition assay using pooled HLM; settings: pooled HLM
T2 sequence (P05177 1-516): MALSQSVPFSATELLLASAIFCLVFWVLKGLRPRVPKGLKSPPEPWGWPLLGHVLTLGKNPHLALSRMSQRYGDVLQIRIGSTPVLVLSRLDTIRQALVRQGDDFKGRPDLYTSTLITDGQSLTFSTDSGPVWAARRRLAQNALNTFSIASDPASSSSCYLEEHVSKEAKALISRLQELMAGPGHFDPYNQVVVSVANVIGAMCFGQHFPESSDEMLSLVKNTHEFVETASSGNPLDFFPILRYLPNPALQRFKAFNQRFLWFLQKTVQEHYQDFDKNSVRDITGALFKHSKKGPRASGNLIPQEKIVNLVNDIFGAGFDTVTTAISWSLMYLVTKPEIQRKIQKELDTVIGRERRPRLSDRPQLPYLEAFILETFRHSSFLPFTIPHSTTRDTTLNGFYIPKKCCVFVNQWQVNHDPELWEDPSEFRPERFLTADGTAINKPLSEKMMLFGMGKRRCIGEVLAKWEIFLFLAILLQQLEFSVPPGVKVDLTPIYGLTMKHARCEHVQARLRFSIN
Protocol: (§1) The enzyme reactions were initiated by adding NADPH (1 mM), and the mixtures were incubated at 37 °C for 5 min in a shaking water bath (100 rpm). The reaction was terminated by adding ice-cold acetonitrile (ACN) containing CBZ (100 nM) and 4-methyl-umbelliferone (300 nM) as internal standards (IS).
(§2) The chromatographic separation was performed on an Agilent 1200 series HPLC system (Agilent Technologies, Santa Clara, CA, USA) equipped with an Atlantis^TM dC18 column (2.1 × 50 mm, 3 µm; Waters Corporation, Milford, MA, USA) with a SecuityGuard^TM C18 guard column (2.0 × 4.0 mm; Phenomenex, Torrance, CA, USA). The mobile phases consisted of double-deionized water (DDW) containing 0.1% (v/v) of formic acid (A) and ACN containing 0.1% (v/v) formic acid (B). […] The sample injection volume was 10 µL, and the total run time was 9.0 min. The column and auto-sampler compartments were maintained at 30 °C and 10 °C, respectively, throughout the analysis. The detection was performed using an API4000 Q-TRAP system equipped with a Turbo V Ion Spray^TM source (Applied Biosystems, Foster City, CA, USA). The operating conditions were optimized as follows: ionization voltage: 5500 V for positive-ion mode and −4500 V for negative-ion mode; ion source temperature: 550 °C; nebulizing gas flow: 50 L/min; auxiliary gas flow: 40 L/min; and curtain gas flow: 30 L/min. The samples were analyzed via multiple reaction monitoring (MRM) mode. […] The data acquisition and processing were performed using Analyst^TM software (version 1.5.2; Applied Biosystems, Foster City, CA, USA).

CYP2A6 = biological target: T3, CYP2A6 (Homo sapiens, UniProt P11509); test: Direct CYP inhibition assay using pooled HLM; settings: pooled HLM
T3 sequence (P11509 1-494): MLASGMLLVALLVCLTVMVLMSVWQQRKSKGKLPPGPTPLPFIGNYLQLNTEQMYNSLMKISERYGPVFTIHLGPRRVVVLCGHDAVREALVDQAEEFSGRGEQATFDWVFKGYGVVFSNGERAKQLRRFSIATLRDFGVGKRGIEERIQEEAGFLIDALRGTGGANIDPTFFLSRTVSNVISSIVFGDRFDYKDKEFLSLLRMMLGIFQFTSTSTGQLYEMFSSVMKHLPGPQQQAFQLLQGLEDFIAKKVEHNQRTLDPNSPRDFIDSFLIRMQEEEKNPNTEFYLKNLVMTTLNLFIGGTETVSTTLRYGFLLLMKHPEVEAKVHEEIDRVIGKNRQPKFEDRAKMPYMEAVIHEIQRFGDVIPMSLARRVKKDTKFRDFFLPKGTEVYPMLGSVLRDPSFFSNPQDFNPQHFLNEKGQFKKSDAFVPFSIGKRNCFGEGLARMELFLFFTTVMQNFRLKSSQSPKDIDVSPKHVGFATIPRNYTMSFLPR
Protocol: as §1, §2

CYP2B6 = biological target: T4, CYP2B6 (Homo sapiens, UniProt P20813); test: Direct CYP inhibition assay using pooled HLM; settings: pooled HLM
T4 sequence (P20813 1-491): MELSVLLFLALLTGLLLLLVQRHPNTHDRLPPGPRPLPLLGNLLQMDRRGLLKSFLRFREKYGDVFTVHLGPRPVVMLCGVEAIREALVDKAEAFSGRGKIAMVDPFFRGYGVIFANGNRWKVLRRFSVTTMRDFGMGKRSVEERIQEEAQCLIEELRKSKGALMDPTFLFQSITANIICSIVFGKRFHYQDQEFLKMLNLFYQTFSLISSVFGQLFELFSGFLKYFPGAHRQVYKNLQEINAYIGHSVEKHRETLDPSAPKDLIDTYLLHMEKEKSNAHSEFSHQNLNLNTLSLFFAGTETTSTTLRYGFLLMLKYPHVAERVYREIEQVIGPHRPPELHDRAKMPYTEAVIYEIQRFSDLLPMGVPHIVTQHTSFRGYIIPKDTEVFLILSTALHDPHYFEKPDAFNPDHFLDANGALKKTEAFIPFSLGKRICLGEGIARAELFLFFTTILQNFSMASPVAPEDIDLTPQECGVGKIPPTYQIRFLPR
Protocol: as §1, §2

CYP2C8 = biological target: T5, CYP2C8 (Homo sapiens, UniProt P10632); test: Direct CYP inhibition assay using pooled HLM; settings: pooled HLM
T5 sequence (P10632 1-490): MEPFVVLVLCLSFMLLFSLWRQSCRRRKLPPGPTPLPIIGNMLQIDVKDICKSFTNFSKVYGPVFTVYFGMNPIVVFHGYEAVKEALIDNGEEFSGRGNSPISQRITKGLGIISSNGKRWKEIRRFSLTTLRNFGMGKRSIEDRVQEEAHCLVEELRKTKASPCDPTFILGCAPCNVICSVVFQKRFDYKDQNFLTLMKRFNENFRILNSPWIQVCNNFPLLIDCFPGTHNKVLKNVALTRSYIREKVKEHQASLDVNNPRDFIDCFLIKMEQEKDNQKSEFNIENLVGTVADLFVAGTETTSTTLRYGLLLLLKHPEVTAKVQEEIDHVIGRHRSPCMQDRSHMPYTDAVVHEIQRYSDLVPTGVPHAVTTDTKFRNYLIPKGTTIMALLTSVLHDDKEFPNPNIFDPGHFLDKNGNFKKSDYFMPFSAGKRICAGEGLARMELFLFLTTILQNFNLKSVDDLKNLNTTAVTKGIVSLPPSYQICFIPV
Protocol: as §1, §2

CYP2C9 = CYP2C9 (Homo sapiens, UniProt P11712); test: Direct CYP inhibition assay using pooled HLM; settings: pooled HLM
Protocol: as §1, §2

CYP2C19 = CYP2C19 (Homo sapiens, UniProt P33261); test: Direct CYP inhibition assay using pooled HLM; settings: pooled HLM
Protocol: as §1, §2

CYP2D6 [2] = biological target: T1, CYP2D6; test: Direct CYP inhibition assay using pooled HLM
Protocol: as §1, §2

CYP2E1 = CYP2E1 (Homo sapiens, UniProt P05181); test: Direct CYP inhibition assay using pooled HLM; settings: pooled HLM
Protocol: as §1, §2

CYP3A4 = CYP3A4 (Homo sapiens, UniProt P08684); test: Direct CYP inhibition assay using pooled HLM
Protocol: as §1, §2

[3] = Metabolic stability and metabolite formation of BBR in pooled HLM; settings: for Concentration in incubation mixture (elimination of BBR and formation of its metabolites): BBR 1 µM in pooled HLM with NADPH-generating system, mean ± SD
Protocol: To evaluate NADPH-dependent metabolism, BBR (1 µM) was incubated with pooled HLM (1 mg/mL) in the presence of the NADPH-regenerating system (1 mM of NADP^+, 5 mM of G6P, and 1 U/mL of G6PDH) to be a final volume of 200 µL. The reactions were quenched by adding the same volume of ice-cold ACN containing CBZ (100 nM) at 0, 7.5, 15, 30, 60, and 120 min of incubation. The incubation mixtures were centrifuged at 1000× g for 20 min at 4 °C, and the supernatants were analyzed by the LC-MS/MS system described in Section 2.2.
Meanwhile, to identify the known metabolites of BBR, an aliquot (5 µL) of the supernatant was injected into an accurate-MS system consisting of an Agilent 6530 Q-TOF LC/MS equipped with dual AJS ESI ion source (Agilent Technologies) and Agilent 1200 series HPLC system (Agilent Technologies). Chromatographic separations were performed on an Agilent Eclipse Plus C18 column (150 × 2.1 mm, 3.5 µm; Agilent Technologies) by gradient elution with a binary mobile phase consisting of DDW with 0.1% (v/v) formic acid (A) and ACN with 0.1% (v/v) formic acid (B) at a flow rate of 0.2 mL/min, where the mobile phase B was set as follows: 2% at 0 min, 20% at 15 min, and 30% at 20–25 min, followed by re-equilibration for 3 min.
In vitro metabolic stability parameters, including half-life (t1/2) and microsomal intrinsic clearance (CLint,mic), were determined according to our previous report [32]. The degradation t1/2 values of the microsomal stability studies were calculated using the following Equation (2):(2) t1/2=0.693/k, where k represents the first-order degradation rate constant. The k values were estimated by fitting a one-phase exponential decay model to the parent drug remaining (%) vs. incubation time plots using GraphPad Prism 5.0 (GraphPad Software Inc., San Diego, CA, USA).
The CLint,mic was determined using the in vitro half-life approach.

CYP2D6 [4] = biological target: T1, CYP2D6; test: Metabolism-dependent CYP2D6 inhibition assay (IC50 shift) using pooled HLM; settings: pooled HLM; for MDI (metabolism-dependent inhibition) of CYP2D6 (in words): pre-incubation with NADPH
Protocol: Pre-incubation was performed in pooled HLM (0.2 mg/mL) added with BBR, THB, TFD, or DMB, or rhCYP2D6 (10 pmol/mL) added with BBR, with or without NADPH (1 mM) in phosphate buffer (0.1 M; pH 7.4) for 30 min. Then, the CYP2D6 substrate (5 µM of dextromethorphan) and NADPH (1 mM) were added to the mixture and incubated for another 10 min. All incubations were carried out at 37 °C in a shaking water bath (100 rpm) using eight-well tube strips placed in an 8 × 12 rack, where the final volume of each reaction mixture was 200 µL. […] The enzyme reactions were quenched by adding an aliquot (200 µL) of ice-cold ACN containing CBZ (100 nM) as an IS. The samples were centrifuged, and the concentration of CYP2D6 metabolite (i.e., dextrorphan, produced by O-demethylation of dextromethorphan) in supernatants were analyzed using the LC-MS/MS method described in Section 2.2.

[5] = human, pooled human liver microsomes

Sequence of CYP3A4 (P08684 whole entry): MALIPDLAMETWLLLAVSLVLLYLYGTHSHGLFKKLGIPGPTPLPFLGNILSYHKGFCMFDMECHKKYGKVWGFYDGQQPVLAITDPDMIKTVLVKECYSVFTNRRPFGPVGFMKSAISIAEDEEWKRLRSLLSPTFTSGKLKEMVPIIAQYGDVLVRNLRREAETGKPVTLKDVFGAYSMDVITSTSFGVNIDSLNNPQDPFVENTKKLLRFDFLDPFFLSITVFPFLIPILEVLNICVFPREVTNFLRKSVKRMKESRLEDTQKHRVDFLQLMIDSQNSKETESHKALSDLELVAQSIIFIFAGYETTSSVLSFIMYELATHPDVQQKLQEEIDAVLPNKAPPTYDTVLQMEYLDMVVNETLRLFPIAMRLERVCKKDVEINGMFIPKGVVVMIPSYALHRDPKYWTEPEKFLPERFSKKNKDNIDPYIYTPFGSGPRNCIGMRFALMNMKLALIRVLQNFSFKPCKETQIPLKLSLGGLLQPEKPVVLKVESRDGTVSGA
T1 sequence (P10635 whole entry): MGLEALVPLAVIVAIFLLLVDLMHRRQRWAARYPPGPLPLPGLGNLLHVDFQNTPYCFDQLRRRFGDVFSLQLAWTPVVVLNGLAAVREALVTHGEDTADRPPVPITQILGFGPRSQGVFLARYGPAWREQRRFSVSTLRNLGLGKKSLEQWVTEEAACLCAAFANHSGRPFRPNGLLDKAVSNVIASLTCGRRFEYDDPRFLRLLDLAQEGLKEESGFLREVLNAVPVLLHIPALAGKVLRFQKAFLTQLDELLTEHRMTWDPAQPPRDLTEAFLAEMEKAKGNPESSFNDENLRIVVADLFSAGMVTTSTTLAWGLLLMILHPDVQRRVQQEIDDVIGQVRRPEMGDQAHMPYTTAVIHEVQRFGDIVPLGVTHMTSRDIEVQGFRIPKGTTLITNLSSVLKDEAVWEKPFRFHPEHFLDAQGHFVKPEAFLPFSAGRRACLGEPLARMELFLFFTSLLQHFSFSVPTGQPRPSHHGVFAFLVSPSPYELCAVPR
Sequence of CYP2C9 (P11712 whole entry): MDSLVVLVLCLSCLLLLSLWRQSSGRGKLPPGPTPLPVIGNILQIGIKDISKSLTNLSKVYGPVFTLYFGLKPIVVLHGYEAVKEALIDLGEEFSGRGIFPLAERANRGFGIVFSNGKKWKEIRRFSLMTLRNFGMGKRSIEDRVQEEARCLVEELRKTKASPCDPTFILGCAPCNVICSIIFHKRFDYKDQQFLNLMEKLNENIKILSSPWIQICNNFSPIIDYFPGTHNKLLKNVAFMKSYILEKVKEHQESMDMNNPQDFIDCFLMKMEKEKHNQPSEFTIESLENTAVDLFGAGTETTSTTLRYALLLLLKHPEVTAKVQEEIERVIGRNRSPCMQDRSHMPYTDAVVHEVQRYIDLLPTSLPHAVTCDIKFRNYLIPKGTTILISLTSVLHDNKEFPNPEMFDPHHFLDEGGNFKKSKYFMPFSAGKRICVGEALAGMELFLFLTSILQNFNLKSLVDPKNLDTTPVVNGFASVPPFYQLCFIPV
Sequence of CYP2C19 (P33261 whole entry): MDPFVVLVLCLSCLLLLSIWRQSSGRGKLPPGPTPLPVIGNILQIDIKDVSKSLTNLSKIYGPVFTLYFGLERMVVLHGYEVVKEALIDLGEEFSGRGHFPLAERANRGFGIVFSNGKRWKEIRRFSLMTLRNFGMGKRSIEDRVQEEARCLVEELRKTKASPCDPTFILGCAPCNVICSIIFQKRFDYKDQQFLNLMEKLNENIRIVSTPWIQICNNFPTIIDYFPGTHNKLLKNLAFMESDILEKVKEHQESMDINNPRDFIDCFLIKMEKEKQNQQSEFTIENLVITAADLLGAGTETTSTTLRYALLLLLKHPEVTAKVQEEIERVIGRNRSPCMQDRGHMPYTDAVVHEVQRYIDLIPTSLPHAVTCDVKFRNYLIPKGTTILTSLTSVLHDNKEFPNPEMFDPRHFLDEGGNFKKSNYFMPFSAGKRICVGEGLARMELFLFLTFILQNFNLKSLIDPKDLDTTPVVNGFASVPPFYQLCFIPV
Sequence of CYP2E1 (P05181 whole entry): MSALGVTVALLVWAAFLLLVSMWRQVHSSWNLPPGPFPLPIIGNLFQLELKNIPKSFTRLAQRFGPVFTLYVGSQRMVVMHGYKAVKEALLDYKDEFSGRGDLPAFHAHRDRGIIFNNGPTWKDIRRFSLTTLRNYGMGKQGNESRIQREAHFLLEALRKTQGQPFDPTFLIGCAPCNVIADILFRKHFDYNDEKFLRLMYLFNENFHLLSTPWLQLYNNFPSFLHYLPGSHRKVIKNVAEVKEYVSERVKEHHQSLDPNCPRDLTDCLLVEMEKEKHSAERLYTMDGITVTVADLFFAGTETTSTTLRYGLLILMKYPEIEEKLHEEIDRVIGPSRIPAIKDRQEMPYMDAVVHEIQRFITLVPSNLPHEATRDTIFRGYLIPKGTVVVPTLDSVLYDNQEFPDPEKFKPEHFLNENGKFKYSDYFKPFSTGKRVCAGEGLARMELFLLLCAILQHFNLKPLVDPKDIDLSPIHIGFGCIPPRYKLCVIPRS

SMILES: COc1ccc2cc3[n+](cc2c1OC)CCc1cc2c(cc1-3)OCO2 [BBR, berberine]
- IC50 (CYP2D6 [1]): ~23.5 µM
- Inhibition of CYP1A2 (in words) (CYP1A2; up to 100 µM): not markedly inhibited
- Inhibition of CYP2A6 (in words) (CYP2A6; up to 100 µM): not markedly inhibited
- Inhibition of CYP2B6 (in words) (CYP2B6; up to 100 µM): not markedly inhibited
- Inhibition of CYP2C8 (in words) (CYP2C8; up to 100 µM): not markedly inhibited
- Inhibition of CYP2C9 (in words) (CYP2C9; up to 100 µM): not markedly inhibited
- Inhibition of CYP2C19 (in words) (CYP2C19; up to 100 µM): not markedly inhibited
- IC50 (CYP2D6 [2]): 11.9 µM
- Inhibition of CYP2E1 (in words) (CYP2E1; up to 100 µM): not markedly inhibited
- Inhibition of CYP3A4 (in words) (CYP3A4; up to 100 µM, substrates MDZ and TST): not markedly inhibited
- Concentration in incubation mixture (elimination of BBR and formation of its metabolites) ([3]; 0 min): 1049 ± 16 nM
- Concentration in incubation mixture (elimination of BBR and formation of its metabolites) ([3]; 7.5 min): 807 ± 11 nM
- Concentration in incubation mixture (elimination of BBR and formation of its metabolites) ([3]; 15 min): 713 ± 12 nM
- Concentration in incubation mixture (elimination of BBR and formation of its metabolites) ([3]; 30 min): 539 ± 4 nM
- Concentration in incubation mixture (elimination of BBR and formation of its metabolites) ([3]; 60 min): 313 ± 15 nM
- Concentration in incubation mixture (elimination of BBR and formation of its metabolites) ([3]; 120 min): 147 ± 5 nM
- half-life at 1 µM [3, 5]: 35.4 min
- microsomal CLint at 1 µM [3, 5]: 7.82 µL/min/mg
- Metabolic stability in HLM (in words) ([3]; pooled HLM): moderately stable
- IC50 (CYP2D6 [4]; IC50 against CYP2D6, pre-incubation with NADPH, 30 min pre-incubation with NADPH): 1.66 µM
- IC50 (CYP2D6 [4]; IC50 against CYP2D6, pre-incubation without NADPH, 30 min pre-incubation without NADPH): 12.4 µM
- MDI (metabolism-dependent inhibition) of CYP2D6 (in words) (CYP2D6 [4]): exhibited MDI

SMILES: COc1ccc2cc3[n+](cc2c1OC)CCc1cc(O)c(O)cc1-3 [DMB, demethyleneberberine]
- IC50 (CYP1A2; read-out: IC50 CYP1A2, direct inhibition, 95% confidence intervals in parentheses): > 100 µM
- IC50 (CYP2A6; read-out: IC50 CYP2A6, direct inhibition, 95% confidence intervals in parentheses): > 100 µM
- IC50 (CYP2B6; read-out: IC50 CYP2B6, direct inhibition, 95% confidence intervals in parentheses): > 100 µM
- IC50 (CYP2C8; read-out: IC50 CYP2C8, direct inhibition, 95% confidence intervals in parentheses): > 100 µM
- IC50 (CYP2C9; read-out: IC50 CYP2C9, direct inhibition, 95% confidence intervals in parentheses): > 100 µM
- IC50 (CYP2C19; read-out: IC50 CYP2C19, direct inhibition, 95% confidence intervals in parentheses): > 100 µM
- IC50 (CYP2D6 [2]; read-out: IC50 CYP2D6, pooled HLM, direct inhibition, substrate dextromethorphan, 95% confidence intervals in parentheses): 32 µM
- IC50 (CYP2E1; read-out: IC50 CYP2E1, direct inhibition, 95% confidence intervals in parentheses): 7.7 µM
- IC50 (CYP3A4; read-out: IC50 CYP3A4 (MDZ), direct inhibition, substrate MDZ, 95% confidence intervals in parentheses): 66 µM
- IC50 (CYP3A4; read-out: IC50 CYP3A4 (TST), direct inhibition, substrate TST, 95% confidence intervals in parentheses): 7.3 µM
- Concentration in incubation mixture (elimination of BBR and formation of its metabolites) ([3]; 0 min): 6.1 ± 0.1 nM
- Concentration in incubation mixture (elimination of BBR and formation of its metabolites) ([3]; 7.5 min): 24.1 ± 0.3 nM
- Concentration in incubation mixture (elimination of BBR and formation of its metabolites) ([3]; 15 min): 38.1 ± 0.5 nM
- Concentration in incubation mixture (elimination of BBR and formation of its metabolites) ([3]; 30 min): 52.6 ± 1.9 nM
- Concentration in incubation mixture (elimination of BBR and formation of its metabolites) ([3]; 60 min): 64.3 ± 1.6 nM
- Concentration in incubation mixture (elimination of BBR and formation of its metabolites) ([3]; 120 min): 75.0 ± 1.0 nM
- MDI (metabolism-dependent inhibition) of CYP2D6 (in words) (CYP2D6 [4]): not
- IC50 (CYP2D6 [4]; read-out: IC50 against CYP2D6, pre-incubation with NADPH, 30 min pre-incubation with NADPH): 54.9 µM
- IC50 (CYP2D6 [4]; read-out: IC50 against CYP2D6, pre-incubation without NADPH, 30 min pre-incubation without NADPH): 34.7 µM
